Columns and labels:
Assay type in all cases: cell-based
Panc-1 = assay: Cancer cell panel, cell viability (resazurin): Pancreatic, Panc-1; conditions: Panc-1 (Pancreatic), 72 hours; labelled drug combined with Example 3
LoVo = assay: Cancer cell panel, cell viability (resazurin): Colon, LoVo; conditions: 72 hours, labelled drug combined with Example 3
HT29 = assay: Cancer cell panel, cell viability (resazurin): Colon, HT29; conditions: 72 hours, labelled drug combined with Example 3
H1299 = assay: Cancer cell panel, cell viability (resazurin): NSCLC, H1299; conditions: 72 hours, labelled drug combined with Example 3
K562 = assay: Cancer cell panel, cell viability (resazurin): Leukemia, K562; conditions: 72 hours, labelled drug combined with Example 3
SkBr-3 = assay: Cancer cell panel, cell viability (resazurin): Breast, SkBr-3; conditions: SkBr-3 (Breast), 72 hours; labelled drug combined with Example 3
MDA-MB-157 = assay: Cancer cell panel, cell viability (resazurin): Breast, MDA-MB-157; conditions: MDA-MB-157 (Breast), 72 hours; labelled drug combined with Example 3
BT-20 = assay: Cancer cell panel, cell viability (resazurin): Breast, BT-20; conditions: BT-20 (Breast), 72 hours; labelled drug combined with Example 3
H23 = assay: Cancer cell panel, cell viability (resazurin): NSCLC, H23; conditions: 72 hours, labelled drug combined with Example 3
EOL-1 = assay: Cancer cell panel, cell viability (resazurin): Leukemia, EOL-1; conditions: EOL-1 (Leukemia), 72 hours; labelled drug combined with Example 3
ZR-75-1 = assay: Cancer cell panel, cell viability (resazurin): Breast, ZR-75-1; conditions: ZR-75-1 (Breast), 72 hours; labelled drug combined with Example 3
RPMI8226 = assay: Cancer cell panel, cell viability (resazurin): multiple myeloma, RPMI8226; conditions: 72 hours, labelled drug combined with Example 3
U266 = assay: Cancer cell panel, cell viability (resazurin): multiple myeloma, U266; conditions: 72 hours, labelled drug combined with Example 3
SK-MEL-3 = assay: Cancer cell panel, cell viability (resazurin): Melanoma, SK-MEL-3; conditions: SK-MEL-3 (Melanoma), 72 hours; labelled drug combined with Example 3
BxPC3 = assay: Cancer cell panel, cell viability (resazurin): Pancreatic, BxPC3; conditions: 72 hours, labelled drug combined with Example 3
MCF7 = assay: Cancer cell panel, cell viability (resazurin): Breast, MCF7; conditions: 72 hours, labelled drug combined with Example 3
Caki-1 = assay: Cancer cell panel, cell viability (resazurin): Renal, Caki-1; conditions: Caki-1 (Renal), 72 hours; labelled drug combined with Example 3
Caov-3 = assay: Cancer cell panel, cell viability (resazurin): Ovarian, Caov-3; conditions: Caov-3 (Ovarian), 72 hours; labelled drug combined with Example 3
OVCAR-3 = assay: Cancer cell panel, cell viability (resazurin): Ovarian, OVCAR-3; conditions: OVCAR-3 (Ovarian), 72 hours; labelled drug combined with Example 3
H2122 = assay: Cancer cell panel, cell viability (resazurin): NSCLC, H2122; conditions: 72 hours, labelled drug combined with Example 3
SKOV-3 = assay: Cancer cell panel, cell viability (resazurin): Ovarian, SKOV-3; conditions: SKOV-3 (Ovarian), 72 hours; labelled drug combined with Example 3
Raji = assay: Cancer cell panel, cell viability (resazurin): Burkitt's Lymphoma, Raji; conditions: 72 hours, labelled drug combined with Example 3
H1975 = assay: Cancer cell panel, cell viability (resazurin): NSCLC, H1975; conditions: 72 hours, labelled drug combined with Example 3
SK-MEL-24 = assay: Cancer cell panel, cell viability (resazurin): Melanoma, SK-MEL-24; conditions: SK-MEL-24 (Melanoma), 72 hours; labelled drug combined with Example 3
H460 = assay: Cancer cell panel, cell viability (resazurin): NSCLC, H460; conditions: 72 hours, labelled drug combined with Example 3
HL60 = assay: Cancer cell panel, cell viability (resazurin): Leukemia, HL60; conditions: 72 hours, labelled drug combined with Example 3
DLD-1 = assay: Cancer cell panel, cell viability (resazurin): Colon, DLD-1; conditions: DLD-1 (Colon), 72 hours; labelled drug combined with Example 3
A2780 = assay: Cancer cell panel, cell viability (resazurin): Ovarian, A2780; conditions: 72 hours, labelled drug combined with Example 3
Colo205 = assay: Cancer cell panel, cell viability (resazurin): Colon, Colo205; conditions: 72 hours, labelled drug combined with Example 3
A375 = assay: Cancer cell panel, cell viability (resazurin): Melanoma, A375; conditions: 72 hours, labelled drug combined with Example 3
MOLT4 = assay: Cancer cell panel, cell viability (resazurin): Leukemia, MOLT4; conditions: 72 hours, labelled drug combined with Example 3
T47D = assay: Cancer cell panel, cell viability (resazurin): Breast, T47D; conditions: 72 hours, labelled drug combined with Example 3
ACHN = assay: Cancer cell panel, cell viability (resazurin): Renal, ACHN; conditions: 72 hours, labelled drug combined with Example 3
Mia-Paca-2 = assay: Cancer cell panel, cell viability (resazurin): Pancreatic, Mia-Paca-2; conditions: Mia-Paca-2 (Pancreatic), 72 hours; labelled drug combined with Example 3
A549 = assay: Cancer cell panel, cell viability (resazurin): NSCLC, A549; conditions: 72 hours, labelled drug combined with Example 3
MDA-MB-231 = assay: Cancer cell panel, cell viability (resazurin): Breast, MDA-MB-231; conditions: MDA-MB-231 (Breast), 72 hours; labelled drug combined with Example 3
WM-115 = assay: Cancer cell panel, cell viability (resazurin): Melanoma, WM-115; conditions: WM-115 (Melanoma), 72 hours; labelled drug combined with Example 3
Ramos = assay: Cancer cell panel, cell viability (resazurin): Burkitt's Lymphoma, Ramos; conditions: 72 hours, labelled drug combined with Example 3

In the case of `CCN(CC)CCNC(=O)c1c(C)[nH]c(/C=C2\C(=O)Nc3ccc(F)cc32)c1C` [Sunitinib, sunitinib], the “synergy, additivity or antagonism of the combination of Example 3 with the anti-cancer drug” value (“synergy, additivity or antagonism” for short) (Panc-1) is reported as “+ + (Slight synergy relative to each agent alone (CI = 0.75-0.9 by Bliss Independence Model))”, the “synergy, additivity or antagonism” value (LoVo) is reported as “+ (Additive relative to each agent alone (CI = 0.9-1 by Bliss Independence Model and <0.9 by Highest Single Agent Model))” and the “synergy, additivity or antagonism” value (HT29) is reported as “+ (Additive relative to each agent alone (CI = 0.9-1 by Bliss Independence Model and <0.9 by Highest Single Agent Model))”. The “synergy, additivity or antagonism” value (H1299) was “+ (Additive relative to each agent alone (CI = 0.9-1 by Bliss Independence Model and <0.9 by Highest Single Agent Model))”, the “synergy, additivity or antagonism” value (K562) was “+ + + (Synergy relative to each agent alone (CI = 0.4-0.74 by Bliss Independence Model))” and the “synergy, additivity or antagonism” value (SkBr-3) was “+ + (Slight synergy relative to each agent alone (CI = 0.75-0.9 by Bliss Independence Model))”. For the same compound, the “synergy, additivity or antagonism” value (MDA-MB-157) was “+ + + (Synergy relative to each agent alone (CI = 0.4-0.74 by Bliss Independence Model))”, the “synergy, additivity or antagonism” value (BT-20) was “+ + (Slight synergy relative to each agent alone (CI = 0.75-0.9 by Bliss Independence Model))” and the “synergy, additivity or antagonism” value (H23) was “+ + + (Synergy relative to each agent alone (CI = 0.4-0.74 by Bliss Independence Model))”. For the same compound, the “synergy, additivity or antagonism” value (EOL-1) was “+ + (Slight synergy relative to each agent alone (CI = 0.75-0.9 by Bliss Independence Model))”, the “synergy, additivity or antagonism” value (ZR-75-1) was “+ + (Slight synergy relative to each agent alone (CI = 0.75-0.9 by Bliss Independence Model))” and the “synergy, additivity or antagonism” value (RPMI8226) was “+ + + + (Strong synergy relative to each agent alone (CI < 0.4 by Bliss Independence Model))”. For the same compound, the “synergy, additivity or antagonism” value (U266) was “+ (Additive relative to each agent alone (CI = 0.9-1 by Bliss Independence Model and <0.9 by Highest Single Agent Model))”, the “synergy, additivity or antagonism” value (SK-MEL-3) was “+ (Additive relative to each agent alone (CI = 0.9-1 by Bliss Independence Model and <0.9 by Highest Single Agent Model))” and the “synergy, additivity or antagonism” value (BxPC3) was “+ + + (Synergy relative to each agent alone (CI = 0.4-0.74 by Bliss Independence Model))”. The “synergy, additivity or antagonism” value (MCF7) was “+ (Additive relative to each agent alone (CI = 0.9-1 by Bliss Independence Model and <0.9 by Highest Single Agent Model))”, the “synergy, additivity or antagonism” value (Caki-1) was “+ (Additive relative to each agent alone (CI = 0.9-1 by Bliss Independence Model and <0.9 by Highest Single Agent Model))” and the “synergy, additivity or antagonism” value (Caov-3) was “+ (Additive relative to each agent alone (CI = 0.9-1 by Bliss Independence Model and <0.9 by Highest Single Agent Model))”. The “synergy, additivity or antagonism” value (OVCAR-3) was “− − (Antagonistic relative to each agent alone (CI = 1.2-1.49 by Highest Single Agent Model))”, the “synergy, additivity or antagonism” value (H2122) was “+ + (Slight synergy relative to each agent alone (CI = 0.75-0.9 by Bliss Independence Model))” and the “synergy, additivity or antagonism” value (SKOV-3) was “+ (Additive relative to each agent alone (CI = 0.9-1 by Bliss Independence Model and <0.9 by Highest Single Agent Model))”. For the same compound, the “synergy, additivity or antagonism” value (Raji) was “+ + (Slight synergy relative to each agent alone (CI = 0.75-0.9 by Bliss Independence Model))”, the “synergy, additivity or antagonism” value (H1975) was “+ + (Slight synergy relative to each agent alone (CI = 0.75-0.9 by Bliss Independence Model))” and the “synergy, additivity or antagonism” value (SK-MEL-24) was “+ + + (Synergy relative to each agent alone (CI = 0.4-0.74 by Bliss Independence Model))”. For the same compound, the “synergy, additivity or antagonism” value (H460) was “+ + (Slight synergy relative to each agent alone (CI = 0.75-0.9 by Bliss Independence Model))”, the “synergy, additivity or antagonism” value (HL60) was “+ + (Slight synergy relative to each agent alone (CI = 0.75-0.9 by Bliss Independence Model))” and the “synergy, additivity or antagonism” value (DLD-1) was “+ + (Slight synergy relative to each agent alone (CI = 0.75-0.9 by Bliss Independence Model))”. For the same compound, the “synergy, additivity or antagonism” value (A2780) was “+ + + (Synergy relative to each agent alone (CI = 0.4-0.74 by Bliss Independence Model))”, the “synergy, additivity or antagonism” value (Colo205) was “+ + + + (Strong synergy relative to each agent alone (CI < 0.4 by Bliss Independence Model))” and the “synergy, additivity or antagonism” value (A375) was “+ + (Slight synergy relative to each agent alone (CI = 0.75-0.9 by Bliss Independence Model))”. The “synergy, additivity or antagonism” value (MOLT4) was “+ (Additive relative to each agent alone (CI = 0.9-1 by Bliss Independence Model and <0.9 by Highest Single Agent Model))”, the “synergy, additivity or antagonism” value (T47D) was “+ (Additive relative to each agent alone (CI = 0.9-1 by Bliss Independence Model and <0.9 by Highest Single Agent Model))” and the “synergy, additivity or antagonism” value (ACHN) was “+ (Additive relative to each agent alone (CI = 0.9-1 by Bliss Independence Model and <0.9 by Highest Single Agent Model))”. For the same compound, the “synergy, additivity or antagonism” value (Mia-Paca-2) was “+ + (Slight synergy relative to each agent alone (CI = 0.75-0.9 by Bliss Independence Model))”, the “synergy, additivity or antagonism” value (A549) was “+ + + (Synergy relative to each agent alone (CI = 0.4-0.74 by Bliss Independence Model))” and the “synergy, additivity or antagonism” value (MDA-MB-231) was “+ + (Slight synergy relative to each agent alone (CI = 0.75-0.9 by Bliss Independence Model))”. The “synergy, additivity or antagonism” value (WM-115) was “+ + (Slight synergy relative to each agent alone (CI = 0.75-0.9 by Bliss Independence Model))” and the “synergy, additivity or antagonism” value (Ramos) was “+ + (Slight synergy relative to each agent alone (CI = 0.75-0.9 by Bliss Independence Model))”.

Reference: patent US10227344B2, “CK2 inhibitors, compositions and methods thereof” (Polaris Pharmaceuticals, Inc., priority 2016, dated 2019)
